Results published in ChEMBL document CHEMBL4732043, “The discovery of novel indazole derivatives as tubulin colchicine site binding agents that displayed potent antitumor activity both in vitro and in vivo” (Eur J Med Chem, 2020).
pIC50: −log10 of the molar value.

Columns and labels:
[1] = tested on: HepG2; experiment: Antiproliferative activity against human HepG2 cells assessed as cell viability after 72 hrs by MTT assay; assay type: functional
[2] = tested on: A549; experiment: Antiproliferative activity against human A549 cells assessed as cell viability after 72 hrs by MTT assay; assay type: functional
[3] = tested on: HCT-116; experiment: Antiproliferative activity against human HCT-116 cells assessed as cell viability after 72 hrs by MTT assay; assay type: functional
[4] = tested on: HCT-116; experiment: Antitumor activity against human HCT-116 cells xenografted in nude mouse assessed as inhibition of tumor growth at 25 mg/kg, po for 21 days; assay type: functional; settings: HCT-116, po, 504 h, time 21 day, read-out: TGI
[5] = Toxicity in nude mouse xenografted with human HCT-116 cells assessed as change in body weight at 25 mg/kg, po for 21 days (reference value: 2.2%); assay type: organism-based; settings: in vivo, 504 h, time 21 day
[6] = tested on: HCT-116; experiment: Induction of apoptosis in human HCT-116 cells assessed as viable cells at 40 nM after 24 hrs by annexinV and 7-ADD staining based flow cytometry (reference value: 96.7%); assay type: functional; settings: read-out: Activity
[7] = tested on: HCT-116; experiment: Induction of apoptosis in human HCT-116 cells assessed as late apoptotic cells at 20 nM after 24 hrs by annexinV and 7-ADD staining based flow cytometry (reference value: 1.5%); assay type: functional
[8] = (§1) Inhibition of porcine brain tubulin polymerization by fluorescence based assay; assay type: cell-based, Sus scrofa domesticus, 1-87 tumor cell line
[9] = tested on: 1-87 tumor cell line; experiment: as §1; settings: Sus scrofa domesticus
[10] = tested on: HCT-116; experiment: Induction of cell cycle arrest in human HCT-116 cells assessed as accumulation of cells at G1 phase at 20 nM after 24 hrs by flow cytometry (reference value: 40.5%); assay type: functional
[11] = tested on: HCT-116; experiment: Induction of cell cycle arrest in human HCT-116 cells assessed as accumulation of cells at S phase at 20 nM after 24 hrs by flow cytometry (reference value: 43.12%); assay type: functional
[12] = tested on: HCT-116; experiment: Induction of apoptosis in human HCT-116 cells assessed as necrotic cells at 40 nM after 24 hrs by annexinV and 7-ADD staining based flow cytometry (reference value: 0.9%); assay type: functional
[13] = molecular target: Tubulin beta (Homo sapiens) (UniProt P68371+Q9H4B7+Q13509+P04350+Q3ZCM7+P07437+Q13885+Q9BVA1+Q9BUF5+A6NNZ2); experiment: Inhibition of N,N'-Ethylenebis(iodoacetamide) binding to beta-tubulin in human HCT-116 cells assessed as reduction in EBI/beta-tubulin adduct formation preincubated for 2 hrs followed by EBI addition and measured after 1.5 hrs by Western blot analysis; assay type: cell-based; settings: dose 0.2-25 µM, time 3.5 hrs
[14] = molecular target: T1, Tubulin (Homo sapiens) (UniProt P68371+Q9H4B7+P0DPH7+P68366+Q13509+Q71U36+P04350+Q3ZCM7+P07437+P68363+Q9BQE3+Q6PEY2+Q13885+Q9BVA1+Q9BUF5); experiment: Inhibition of tubulin polymerization in human HCT-116 cells assessed as microtubule spindle formation after 24 hrs by immunofluorescence analysis; assay type: cell-based; settings: dose 20-40 nM
[15] = tested on: HCT-116; experiment: Induction of apoptosis in human HCT-116 cells assessed as necrotic cells at 10 nM after 24 hrs by annexinV and 7-ADD staining based flow cytometry (reference value: 0.9%); assay type: functional
[16] = Cytotoxicity against HUVEC assessed as cell viability after 72 hrs by MTT assay; assay type: cell-based; settings: human, HUVEC cells
[17] = tested on: HCT-116; experiment: Induction of apoptosis in human HCT-116 cells assessed as early apoptotic cells at 40 nM after 24 hrs by annexinV and 7-ADD staining based flow cytometry (reference value: 0.9%); assay type: functional
[18] = tested on: HCT-116; experiment: Induction of apoptosis in human HCT-116 cells assessed as viable cells at 20 nM after 24 hrs by annexinV and 7-ADD staining based flow cytometry (reference value: 96.7%); assay type: functional; settings: read-out: Activity
[19] = tested on: HCT-116; experiment: Induction of apoptosis in human HCT-116 cells assessed as early apoptotic cells at 10 nM after 24 hrs by annexinV and 7-ADD staining based flow cytometry (reference value: 0.9%); assay type: functional
[20] = molecular target: T1, Tubulin (Homo sapiens); experiment: Inhibition of tubulin polymerization in human HCT-116 cells assessed as microtubule network polymerization after 24 hrs by immunofluorescence analysis; assay type: cell-based; settings: dose 20-40 nM
[21] = tested on: HCT-116; experiment: Antitumor activity against human HCT-116 cells xenografted in nude mouse assessed as inhibition of tumor growth at 12.5 mg/kg, po for 21 days; assay type: functional; settings: HCT-116, po, 504 h, time 21 day, read-out: TGI
[22] = tested on: HT-29; experiment: Antiproliferative activity against human HT-29 cells assessed as cell viability after 72 hrs by MTT assay; assay type: functional
[23] = molecular target: T1, Tubulin (Homo sapiens); experiment: Inhibition of tubulin polymerization in human HCT-116 cells assessed as complete microtubule depolymerization at 40 nM after 24 hrs by immunofluorescence analysis; assay type: cell-based
[24] = tested on: SW-620; experiment: Antiproliferative activity against human SW-620 cells assessed as cell viability after 72 hrs by MTT assay; assay type: functional
[25] = tested on: HCT-116; experiment: Induction of apoptosis in human HCT-116 cells assessed as early apoptotic cells at 20 nM after 24 hrs by annexinV and 7-ADD staining based flow cytometry (reference value: 0.9%); assay type: functional
[26] = tested on: HCT-116; experiment: Induction of cell cycle arrest in human HCT-116 cells assessed as accumulation of cells at G2/M phase at 20 nM after 24 hrs by flow cytometry (reference value: 16.35%); assay type: functional
[27] = tested on: HCT-116; experiment: Induction of apoptosis in human HCT-116 cells assessed as late apoptotic cells at 40 nM after 24 hrs by annexinV and 7-ADD staining based flow cytometry (reference value: 1.5%); assay type: functional
[28] = tested on: HCT-116; experiment: Induction of apoptosis in human HCT-116 cells assessed as viable cells at 10 nM after 24 hrs by annexinV and 7-ADD staining based flow cytometry (reference value: 96.7%); assay type: functional; settings: read-out: Activity
[29] = tested on: HCT-116; experiment: Induction of cell cycle arrest in human HCT-116 cells assessed as accumulation of cells at G1 phase at 10 nM after 24 hrs by flow cytometry (reference value: 40.5%); assay type: functional
[30] = tested on: HCT-116; experiment: Induction of apoptosis in human HCT-116 cells assessed as necrotic cells at 20 nM after 24 hrs by annexinV and 7-ADD staining based flow cytometry (reference value: 0.9%); assay type: functional
[31] = Toxicity in nude mouse xenografted with human HCT-116 cells assessed as change in body weight at 12.5 mg/kg, po for 21 days (reference value: 2.2%); assay type: organism-based; settings: in vivo, 504 h, time 21 day
[32] = tested on: HCT-116; experiment: Induction of apoptosis in human HCT-116 cells assessed as late apoptotic cells at 10 nM after 24 hrs by annexinV and 7-ADD staining based flow cytometry (reference value: 1.5%); assay type: functional
[33] = tested on: HCT-116; experiment: Induction of cell cycle arrest in human HCT-116 cells assessed as accumulation of cells at S phase at 10 nM after 24 hrs by flow cytometry (reference value: 43.12%); assay type: functional
[34] = tested on: HCT-116; experiment: Induction of cell cycle arrest in human HCT-116 cells assessed as accumulation of cells at G2/M phase at 10 nM after 24 hrs by flow cytometry (reference value: 16.35%); assay type: functional
[35] = molecular target: Vascular endothelial growth factor receptor 2 (Homo sapiens) (UniProt P35968); experiment: Inhibition of human KDR expressed in mammalian expression system at 10 uM by radiometric assay
Sequence of Vascular endothelial growth factor receptor 2 (Homo sapiens) (P35968 whole entry): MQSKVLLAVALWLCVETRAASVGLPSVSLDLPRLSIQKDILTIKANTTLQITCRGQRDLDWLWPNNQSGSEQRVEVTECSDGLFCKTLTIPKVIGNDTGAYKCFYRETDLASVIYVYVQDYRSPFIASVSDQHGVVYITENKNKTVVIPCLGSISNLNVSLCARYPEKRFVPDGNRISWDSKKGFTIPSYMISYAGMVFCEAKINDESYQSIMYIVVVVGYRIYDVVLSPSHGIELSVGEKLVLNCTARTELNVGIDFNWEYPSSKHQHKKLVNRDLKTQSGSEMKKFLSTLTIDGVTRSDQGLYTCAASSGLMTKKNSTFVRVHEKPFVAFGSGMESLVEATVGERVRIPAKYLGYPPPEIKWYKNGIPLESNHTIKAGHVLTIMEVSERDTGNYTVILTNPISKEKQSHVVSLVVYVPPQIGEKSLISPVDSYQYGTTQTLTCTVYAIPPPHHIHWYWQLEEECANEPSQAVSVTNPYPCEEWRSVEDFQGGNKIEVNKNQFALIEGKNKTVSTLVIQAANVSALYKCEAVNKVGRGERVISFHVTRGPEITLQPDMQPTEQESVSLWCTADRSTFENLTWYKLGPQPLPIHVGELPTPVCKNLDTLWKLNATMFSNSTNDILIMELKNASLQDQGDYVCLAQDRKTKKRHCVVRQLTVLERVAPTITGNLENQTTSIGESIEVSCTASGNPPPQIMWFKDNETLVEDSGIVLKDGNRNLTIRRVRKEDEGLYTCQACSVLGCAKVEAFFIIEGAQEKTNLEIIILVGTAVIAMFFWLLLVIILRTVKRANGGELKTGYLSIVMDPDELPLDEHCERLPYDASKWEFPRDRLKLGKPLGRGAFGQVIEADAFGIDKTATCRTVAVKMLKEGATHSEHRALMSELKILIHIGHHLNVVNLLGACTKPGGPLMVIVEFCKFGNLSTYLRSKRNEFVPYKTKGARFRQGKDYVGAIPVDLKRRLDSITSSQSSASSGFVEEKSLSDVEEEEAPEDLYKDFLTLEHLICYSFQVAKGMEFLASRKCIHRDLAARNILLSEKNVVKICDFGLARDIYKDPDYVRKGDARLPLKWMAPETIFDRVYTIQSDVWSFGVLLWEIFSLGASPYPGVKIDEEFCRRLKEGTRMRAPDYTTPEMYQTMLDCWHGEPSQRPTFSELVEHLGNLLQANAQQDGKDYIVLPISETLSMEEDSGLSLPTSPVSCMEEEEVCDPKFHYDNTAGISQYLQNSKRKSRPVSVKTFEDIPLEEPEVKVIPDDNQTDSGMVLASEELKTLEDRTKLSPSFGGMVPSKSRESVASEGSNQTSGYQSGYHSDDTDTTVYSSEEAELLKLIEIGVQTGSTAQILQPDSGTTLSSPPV

[36] = molecular target: Protein kinase C alpha type (Homo sapiens) (UniProt P17252); experiment: Inhibition of human recombinant PKCalpha at 10 uM by radiometric assay
[37] = molecular target: Proto-oncogene tyrosine-protein kinase Src (Homo sapiens) (UniProt P12931); experiment: Inhibition of human recombinant c-SRC (1-530 aa) at 10 uM by radiometric assay
Sequence of Proto-oncogene tyrosine-protein kinase Src (Homo sapiens) (P12931 2-536 limits assumed): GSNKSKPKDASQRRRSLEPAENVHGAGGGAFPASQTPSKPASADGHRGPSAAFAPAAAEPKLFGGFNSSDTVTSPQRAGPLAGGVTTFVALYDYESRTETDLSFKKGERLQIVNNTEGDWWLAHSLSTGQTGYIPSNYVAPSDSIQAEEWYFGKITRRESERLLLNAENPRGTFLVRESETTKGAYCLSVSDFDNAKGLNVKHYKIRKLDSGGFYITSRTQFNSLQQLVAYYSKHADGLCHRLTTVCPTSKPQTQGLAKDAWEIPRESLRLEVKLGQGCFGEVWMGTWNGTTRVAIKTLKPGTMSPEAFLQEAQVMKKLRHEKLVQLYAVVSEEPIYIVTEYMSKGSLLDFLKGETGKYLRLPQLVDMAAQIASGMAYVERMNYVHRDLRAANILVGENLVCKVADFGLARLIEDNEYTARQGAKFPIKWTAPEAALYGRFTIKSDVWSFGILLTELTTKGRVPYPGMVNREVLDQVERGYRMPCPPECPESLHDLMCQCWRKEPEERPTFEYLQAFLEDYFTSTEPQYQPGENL

Work on `Fc1ccc2c(Nc3ccc4c(c3)OCO4)n[nH]c2c1` yielded a GI50 [1] of over 25 µM, a GI50 [2] of over 25 µM and a GI50 [3] of over 25 µM.

With `O=c1[nH]cc(F)c(=O)[nH]1` [FLUOROURACIL] the inhibition in vivo at 25 mg/kg [4] was 45.5% and the Activity [5] was 21.8%.

Compound `COc1ccc(Nc2n[nH]c3cc(C)ccc23)cc1` has a GI50 [1] of over 25 µM, a GI50 [2] of over 25 µM and a GI50 [3] of over 25 µM.

With `COc1cc(Nc2n[nH]c3cc(C)ccc23)cc(OC)c1OC` the viability at 0.04 µM [6] was 62.2%, the Activity [7] was 13.7% and the GI50 [1] was 0.027 µM. For the same compound, the pIC50 [8] was 5.47, the inhibition [9] was “Dose-dependent effect” and the Activity [10] was 14.25%. For the same compound, the Activity [11] was 4.68%, the Activity [12] was 1.5% and the inhibition [13] was “Dose-dependent effect”. The inhibition [14] was “Dose-dependent effect”, the Activity [15] was 2.7% and the GI50 at 72 h [16] was over 25 µM. It also gave a GI50 [2] of 0.033 µM, an Activity [17] of 15.4% and a viability at 0.02 µM [18] of 75.4%. For the same compound, the Activity [19] was 4.7%, the inhibition [20] was “Dose-dependent effect” and the inhibition in vivo at 25 mg/kg [4] was 45.3%. The inhibition in vivo at 12.5 mg/kg [21] was 27.4%, the GI50 [22] was 0.031 µM and the inhibition [23] was 100%. The GI50 [24] was 0.008 µM, the Activity [25] was 8.9% and the Activity [26] was 81.07%. For the same compound, the Activity [5] was 6.5%, the Activity [27] was 20.9% and the viability at 0.01 µM [28] was 79.9%. It also gave an Activity [29] of 34.54%, an Activity [30] of 2.1% and an Activity [31] of 2.7%. The Activity [32] was 12.7%, the Activity [33] was 36.46% and the GI50 [3] was 0.015 µM. For the same compound, the Activity [34] was 29%.

In the case of `COc1ccc(Nc2n[nH]c3cc(OC)ccc23)cc1`, the GI50 [1] was over 25 µM, the GI50 [2] was over 25 µM and the GI50 [3] was 24.8 µM.

`COc1ccc2c(Nc3cc(OC)c(OC)c(OC)c3)n[nH]c2c1` showed a viability at 0.04 µM [6] of 66.2%, an Activity [7] of 13.1% and a GI50 [1] of 0.053 µM. For the same compound, the pIC50 [8] was 5.32, the inhibition [9] was “Dose-dependent effect” and the Activity [10] was 6.85%. It also gave an Activity [11] of 6.04%, an Activity [12] of 3.5% and an inhibition [35] of 66%. For the same compound, the inhibition [13] was “Dose-dependent effect”, the inhibition [14] was “Dose-dependent effect” and the Activity [15] was 3.1%. It also gave a GI50 at 72 h [16] of over 25 µM, a GI50 [2] of 0.065 µM and an Activity [17] of 12.8%. For the same compound, the inhibition [36] was 24%, the viability at 0.02 µM [18] was 79.2% and the Activity [19] was 5.1%. For the same compound, the inhibition [20] was “Dose-dependent effect”, the inhibition in vivo at 25 mg/kg [4] was 59.9% and the inhibition in vivo at 12.5 mg/kg [21] was 34.3%. The GI50 [22] was 0.096 µM, the inhibition [23] was 100% and the GI50 [24] was 0.024 µM. The Activity [25] was 5.2%, the Activity [26] was 87.12% and the Activity [5] was 1.1%. It also gave an Activity [27] of 17.6%, a viability at 0.01 µM [28] of 81.8% and an Activity [29] of 36.86%. For the same compound, the Activity [30] was 2.6%, the inhibition [37] was 35% and the Activity [31] was 2.8%. The Activity [32] was 10.1%, the Activity [33] was 41.56% and the GI50 [3] was 0.041 µM. It also gave an Activity [34] of 21.57%.

Work on `COc1cc(Nc2n[nH]c3cccc(C)c23)cc(OC)c1OC` yielded a GI50 [1] of 10.1 µM, a GI50 [2] of 6.1 µM and a GI50 [3] of 9.3 µM.

`COc1ccc(/C=C\c2cc(OC)c(OC)c(OC)c2)cc1O` [COMBRETASTATIN A4] showed a GI50 [1] of 0.002 µM, a GI50 [2] of 0.167 µM and a GI50 [3] of 0.006 µM.

Work on `COc1cc(Nc2n[nH]c3cc(C)ccc23)cc(OC)c1` yielded a GI50 [1] of 0.2 µM, a GI50 [2] of 1.1 µM and a GI50 [3] of 0.7 µM.

`COc1ccc(Nc2n[nH]c3ccc(C)cc23)cc1` showed a GI50 [1] of over 25 µM, a GI50 [2] of over 25 µM and a GI50 [3] of over 25 µM.

For `COc1ccc2c(Nc3ccc(OC)c(OC)c3)n[nH]c2c1`, the GI50 [1] was over 25 µM, the GI50 [2] was over 25 µM and the GI50 [3] was 14.6 µM.

In the case of `Cc1ccc2[nH]nc(Nc3ccc4c(c3)OCO4)c2c1`, the GI50 [1] was over 25 µM, the GI50 [2] was over 25 µM and the GI50 [3] was over 25 µM.
